Measured values published in article PMC9913425, “Pentacyclic Triterpenoids-Based Ionic Compounds: Synthesis, Study of Structure–Antitumor Activity Relationship, Effects on Mitochondria and Activation of Signaling Pathways of Proliferation, Genome Reparation and Early Apoptosis” (Cancers, 2023).

Assays:
HEK293 = test: In vitro cytotoxicity, IC50 by flow cytometry (Guava ViaCount); assay type: cell-based; conditions: conditionally normal
Description: (§1) Human cancer cell line HeLa, HL60, A2780 was obtained from the HPA Culture Collections (Salisbury, UK). Cells (Jurkat, K562, U937, Hek293, Fibroblasts) were purchased from Russian Cell Culture Collection (Institute of Cytology of the Russian Academy of Sciences, […], Russia) and cultured according to standard protocols and sterile technique. […] Cells were maintained in RPMI 1640 (Jurkat, K562, U937, HL60) (Gibco, Billings, MT, USA) supplemented with […], 10% FBS (Sigma) and 100 units/mL penicillin–streptomycin (Sigma). All types of cells were grown in an atmosphere of 5% CO2 at 37 °C. The cells were subcultured at 2–3 days intervals. Cells were then seeded in 24-well plates at 5 × 10^4 cells per well and incubated overnight. Jurkat, K562, U937, HL60 cells were subcultured at 2-day intervals with a seeding density of 1 × 10^5 cells per 24-well plates in RPMI with 10% FBS.
(§2) The antitumor activity of the synthesized ionic compounds was initially assessed in vitro on Jurkat, K562, U937, HL60, HEK293, A2780 cell lines, including the determination of IC50 by flow cytometry involving Guava ViaCount (Millipore) reagent kits.

Jurkat = test: as above; assay type: cell-based; conditions: Jurkat cells
Description: as §1, §2

K562 = test: as above; assay type: cell-based
Description: as §1, §2

U937 = test: as above; assay type: cell-based
Description: as §1, §2

A2780 = test: as above; assay type: cell-based, human
Description: as §1, §2

HL60 = test: as above; assay type: cell-based, human
Description: as §1, §2

Jurkat cells = test: Apoptosis/necrosis induction (Annexin V Alexa Fluor488, 7AAD staining); assay type: cell-based; conditions: compound at IC50 concentration, incubation 2 h
Excerpt: Multiparametric evaluation of marker molecules, along with the detection of damage to the mitochondrial membrane, makes it possible to clearly determine the type of cell death. The method of cell staining with three different dyes (Annexin V Alexa Fluor488, 7AAD and MitoSense Red) provides simultaneous specification of various aspects of the state of the cell membrane, the state of DNA and the viability of mitochondria; together, it is a reliable sign of intrinsic and mitochondrial apoptosis pathway. Normal cells with intact mitochondrial membranes have high MitoSense Red fluorescence, while cells with decoupled oxidation and phosphorylation have much lower fluorescence. […]
Figure 1 The ratio of the level of mito-damage and the level of apoptosis in Jurkat cells of ionic compounds based on ursolic, oleanolic and betulinic acids.

[1] = tested on: mitochondria of Jurkat tumor cells; test: Mitochondrial damage (MitoSense Red staining); assay type: cell-based; conditions: compound at IC50 concentration, incubation 2 h
[2] = Homo sapiens, HEK293, HEK293 cells
[3] = Homo sapiens, U-937, U937 cells
[4] = Homo sapiens, A2780, A2780 cells
[5] = Homo sapiens, HL-60, HL60 cells

With C[n+]1ccn(CCCCOC(=O)[C@]23CCC(C)(C)CC2C2=CCC4[C@@]5(C)CC[C@H](O)C(C)(C)C5CC[C@@]4(C)[C@]2(C)CC3)c1 (stereo partly drawn) [9b, 1-(4-{[(3β)-3-Hydroxyolean-12-en-28-oyl]oxy}butyl)-3-methylimidazolium bromide] the IC50 (HEK293; [2]) was 449 ± 41 nM, the IC50 (Jurkat; Homo sapiens, Jurkat) was 29 ± 2 nM and the IC50 (K562; Homo sapiens, K562, K562 cells) was 149 ± 7 nM. For the same molecule, the IC50 (U937; [3]) was 135 ± 7 nM, the IC50 (A2780; [4]) was 257 ± 24 nM and the IC50 (HL60; [5]) was 46 ± 4 nM.

Molecule C[n+]1ccn(CCCCCCOC(=O)[C@]23CCC(C)(C)CC2C2=CCC4[C@@]5(C)CC[C@H](O)C(C)(C)C5CC[C@@]4(C)[C@]2(C)CC3)c1 (stereo partly drawn) [9c, 1-(6-{[(3β)-3-Hydroxyolean-12-en-28-oyl]oxy}hexyl)-3-methylimidazolium bromide] has an IC50 (HEK293; HEK293 cells) of 318 ± 29 nM, an IC50 (Jurkat) of 26 ± 1 nM and an IC50 (K562; K562 cells) of 133 ± 6 nM. For the same molecule, the IC50 (U937; U937 cells) was 119 ± 5 nM, the IC50 (A2780; A2780 cells) was 234 ± 21 nM and the IC50 (HL60; HL60 cells) was 31 ± 3 nM.

C[C@@H]1CC[C@]2(C(=O)OCCn3cc[n+](C)c3)CC[C@]3(C)C(=CCC4[C@@]5(C)CC[C@H](O)C(C)(C)C5CC[C@]43C)C2[C@H]1C (stereo partly drawn) [10a, 1-(2-{[(3β)-3-Hydroxyurs-12-en-28-oyl]oxy}ethyl)-3-methylimidazolium bromide] showed an IC50 (HEK293; [2]) of 91 ± 9 nM, an IC50 (Jurkat; Homo sapiens, Jurkat) of 17 ± 1 nM and an IC50 (K562; Homo sapiens, K562, K562 cells) of 31 ± 2 nM. It also gave an IC50 (U937; [3]) of 27 ± 2 nM, an IC50 (A2780; [4]) of 59 ± 5 nM and an IC50 (HL60; [5]) of 8 ± 1 nM. For the same molecule, the “Apoptosis (%) Early” value (Jurkat cells) was 10.43%, the “Apoptosis (%) Late” value (Jurkat cells) was 5.01% and the “Apoptosis (%) Necrosis” value (Jurkat cells) was 0.71%. The “Mito-Damage (%)” value [1] was 11.01%.

With C[C@@H]1CC[C@]2(C(=O)OCCCCCCn3cc[n+](C)c3)CC[C@]3(C)C(=CCC4[C@@]5(C)CC[C@H](O)C(C)(C)C5CC[C@]43C)C2[C@H]1C (some centres unmarked) [10c] the IC50 (HEK293; [2]) was 24 ± 2 nM, the IC50 (Jurkat; Homo sapiens, Jurkat) was 3 ± 1 nM and the IC50 (K562; Homo sapiens, K562, K562 cells) was 7 ± 1 nM. The IC50 (U937; [3]) was 6 ± 1 nM, the IC50 (A2780; [4]) was 11 ± 1 nM and the IC50 (HL60; [5]) was 2 ± 1 nM. The “Apoptosis (%) Early” value (Jurkat cells) was 6.61%, the “Apoptosis (%) Late” value (Jurkat cells) was 4.08% and the “Apoptosis (%) Necrosis” value (Jurkat cells) was 0.61%. For the same molecule, the “Mito-Damage (%)” value [1] was 8.89%.

C=C(C)[C@@H]1CC[C@]2(C(=O)OCCn3cc[n+](C)c3)CC[C@]3(C)C(CCC4[C@@]5(C)CC[C@H](O)C(C)(C)C5CC[C@]43C)C12 (stereo partly drawn) [11a, 1-(2-{[(3β)-3-Hydroxylup-20(29)-en-28-oyl]oxy}ethyl)-3-methylimidazolium bromide] was tested, and the IC50 (HEK293; [2]) was 237 ± 21 nM, the IC50 (Jurkat; Homo sapiens, Jurkat) was 25 ± 1 nM and the IC50 (K562; Homo sapiens, K562, K562 cells) was 76 ± 4 nM. For the same molecule, the IC50 (U937; [3]) was 69 ± 3 nM, the IC50 (A2780; [4]) was 132 ± 12 nM and the IC50 (HL60; [5]) was 22 ± 2 nM. For the same molecule, the “Apoptosis (%) Early” value (Jurkat cells) was 6.58%, the “Apoptosis (%) Late” value (Jurkat cells) was 0.74% and the “Apoptosis (%) Necrosis” value (Jurkat cells) was 0.56%. For the same molecule, the “Mito-Damage (%)” value [1] was 5.26%.

In the case of C=C(C)[C@@H]1CC[C@]2(C(=O)OCCCCCCn3cc[n+](C)c3)CC[C@]3(C)C(CCC4[C@@]5(C)CC[C@H](O)C(C)(C)C5CC[C@]43C)C12 (some centres unmarked) [11c], the IC50 (HEK293; [2]) is reported as 54 ± 5 nM, the IC50 (Jurkat; Homo sapiens, Jurkat) is reported as 39 ± 4 nM and the IC50 (K562; Homo sapiens, K562, K562 cells) is reported as 21 ± 1 nM. It also gave an IC50 (U937; [3]) of 19 ± 1 nM, an IC50 (A2780; [4]) of 36 ± 3 nM and an IC50 (HL60; [5]) of 6 ± 1 nM. The “Apoptosis (%) Early” value (Jurkat cells) was 15.59%, the “Apoptosis (%) Late” value (Jurkat cells) was 1.82% and the “Apoptosis (%) Necrosis” value (Jurkat cells) was 4.37%. For the same molecule, the “Mito-Damage (%)” value [1] was 25.72%.

With C[n+]1ccn(CCCCCCOC(=O)[C@]23CCC(C)(C)CC2C2=CCC4[C@@]5(C)CC[C@H](O)C(C)(C)C5CC[C@@]4(C)[C@]2(C)CC3)c1 (stereo partly drawn) [13a, 1-(6-{[(3β)-3-Hydroxyolean-12-en-28-oyl]oxy}hexyl)-3-methylimidazolium Tetrafluoroborate] the IC50 (HEK293; HEK293 cells) was 24 ± 2 nM, the IC50 (Jurkat) was 3 ± 1 nM and the IC50 (K562; K562 cells) was 6 ± 1 nM. The IC50 (U937; U937 cells) was 5 ± 1 nM, the IC50 (A2780; A2780 cells) was 18 ± 2 nM and the IC50 (HL60; HL60 cells) was 2 ± 1 nM.

C[C@H](O)C(=O)[O-].C[n+]1ccn(CCCCCCOC(=O)[C@]23CCC(C)(C)CC2C2=CCC4[C@@]5(C)CC[C@H](O)C(C)(C)C5CC[C@@]4(C)[C@]2(C)CC3)c1 (stereo partly drawn) [13g, 1-(6-{[(3β)-3-Hydroxyolean-12-en-28-oyl]oxy}hexyl)-3-methylimidazolium L-lactate] was tested, and the IC50 (HEK293; HEK293 cells) was 26 ± 2 nM, the IC50 (Jurkat) was 7 ± 1 nM and the IC50 (K562; K562 cells) was 14 ± 1 nM. It also gave an IC50 (U937; U937 cells) of 13 ± 1 nM, an IC50 (A2780; A2780 cells) of 13 ± 1 nM and an IC50 (HL60; HL60 cells) of 2 ± 1 nM. The “Mito-Damage (%)” value [1] was 97.4%.

Work on CC1(C)CCC2(C(=O)[O-])CCC3(C)C(=CCC4C5(C)CCC(O)C(C)(C)C5CCC43C)C2C1.CC[n+]1ccn(C)c1 (stereo not drawn) [15a, 1-Ethyl-3-methylimidazolium (3β)-3-hydroxyolean-12-en-28-oylate] yielded an IC50 (HEK293; HEK293 cells) of 359 ± 31 nM, an IC50 (Jurkat) of 47 ± 3 nM and an IC50 (K562; K562 cells) of 88 ± 5 nM. The IC50 (U937; U937 cells) was 79 ± 5 nM, the IC50 (A2780; A2780 cells) was 162 ± 12 nM and the IC50 (HL60; HL60 cells) was 34 ± 3 nM.

CCn1cc[n+](C)c1.C[C@H]1[C@H](C)CC[C@]2(C(=O)[O-])CC[C@]3(C)C(=CC[C@@H]4[C@@]5(C)CC[C@H](O)C(C)(C)[C@@H]5CC[C@]43C)[C@H]12 [16a, 1-Ethyl-3-methylimidazolium (3β)-3-hydroxyours-12-en-28-oylate] showed an IC50 (HEK293; HEK293 cells) of 178 ± 18 nM, an IC50 (Jurkat) of 33 ± 2 nM and an IC50 (K562; K562 cells) of 36 ± 2 nM. The IC50 (U937; U937 cells) was 34 ± 2 nM, the IC50 (A2780; A2780 cells) was 88 ± 7 nM and the IC50 (HL60; HL60 cells) was 18 ± 2 nM.
